From PubChem BioAssay (NCI)
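Five concentrations, 48 hours, 96-well plates. TGI marks complete inhibition of growth.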

system: HOP-62 NSCLC; assay: DTP human tumour cell line panel, 48 h

Compound | TGI [µM]
CC1=C(O)C(=O)C(C2=C(O)C(=O)C(C)=C(O)C2=O)=C(O)C1=O | > 100

system: HOP-92 NSCLC; assay: DTP human tumour cell line panel, 48 h

Compound | TGI [µM]
CCOC(=O)C1C(O)CC2c3ccccc3-c3ccccc3C21 (stereo unspecified) | 75
CC/C=C/C[C@H](O[Si](C)(C)C(C)(C)C)[C@H]1C[C@H]2O[C@H]([C@@H](O)C#C[Si](C)(C)C)C[C@H]2O1 | 22.4
COc1ccc(NC2=NCCO2)c2c1CCCC2 | 79.5
O=c1cc(-c2ccccc2)c2ccc(O)c(CN(CCCl)CCCl)c2o1 | 56.8
CC1=C(O)C(=O)C(C2=C(O)C(=O)C(C)=C(O)C2=O)=C(O)C1=O | 92.1

system: HS 578T breast; assay: DTP human tumour cell line panel, 48 h

Compound | TGI [µM]
CCOC(=O)C1C(O)CC2c3ccccc3-c3ccccc3C21 (stereo unspecified) | 60.6
CC/C=C/C[C@H](O[Si](C)(C)C(C)(C)C)[C@H]1C[C@H]2O[C@H]([C@@H](O)C#C[Si](C)(C)C)C[C@H]2O1 | 32.4
COc1ccc(NC2=NCCO2)c2c1CCCC2 | 91.6
O=c1cc(-c2ccccc2)c2ccc(O)c(CN(CCCl)CCCl)c2o1 | 69.5
CC1=C(O)C(=O)C(C2=C(O)C(=O)C(C)=C(O)C2=O)=C(O)C1=O | > 100

system: HT29 colon; assay: DTP human tumour cell line panel, 48 h

Compound | TGI [µM]
CCOC(=O)C1C(O)CC2c3ccccc3-c3ccccc3C21 (stereo unspecified) | > 100
CC/C=C/C[C@H](O[Si](C)(C)C(C)(C)C)[C@H]1C[C@H]2O[C@H]([C@@H](O)C#C[Si](C)(C)C)C[C@H]2O1 | 24.4
COc1ccc(NC2=NCCO2)c2c1CCCC2 | > 100
O=c1cc(-c2ccccc2)c2ccc(O)c(CN(CCCl)CCCl)c2o1 | 26
CC1=C(O)C(=O)C(C2=C(O)C(=O)C(C)=C(O)C2=O)=C(O)C1=O | > 100

system: IGROV1 ovarian; assay: DTP human tumour cell line panel, 48 h

Compound | TGI [µM]
CCOC(=O)C1C(O)CC2c3ccccc3-c3ccccc3C21 (stereo unspecified) | > 100
CC/C=C/C[C@H](O[Si](C)(C)C(C)(C)C)[C@H]1C[C@H]2O[C@H]([C@@H](O)C#C[Si](C)(C)C)C[C@H]2O1 | 27.5
COc1ccc(NC2=NCCO2)c2c1CCCC2 | > 100
O=c1cc(-c2ccccc2)c2ccc(O)c(CN(CCCl)CCCl)c2o1 | 33.8
CC1=C(O)C(=O)C(C2=C(O)C(=O)C(C)=C(O)C2=O)=C(O)C1=O | > 100

system: K-562 leukemia; assay: DTP human tumour cell line panel, 48 h

Compound | TGI [µM]
CCOC(=O)C1C(O)CC2c3ccccc3-c3ccccc3C21 (stereo unspecified) | > 100
CC/C=C/C[C@H](O[Si](C)(C)C(C)(C)C)[C@H]1C[C@H]2O[C@H]([C@@H](O)C#C[Si](C)(C)C)C[C@H]2O1 | > 44.3
COc1ccc(NC2=NCCO2)c2c1CCCC2 | > 100
O=c1cc(-c2ccccc2)c2ccc(O)c(CN(CCCl)CCCl)c2o1 | 91.5
CC1=C(O)C(=O)C(C2=C(O)C(=O)C(C)=C(O)C2=O)=C(O)C1=O | > 100

system: KM12 colon; assay: DTP human tumour cell line panel, 48 h

Compound | TGI [µM]
CCOC(=O)C1C(O)CC2c3ccccc3-c3ccccc3C21 (stereo unspecified) | > 100
CC/C=C/C[C@H](O[Si](C)(C)C(C)(C)C)[C@H]1C[C@H]2O[C@H]([C@@H](O)C#C[Si](C)(C)C)C[C@H]2O1 | 39.2
COc1ccc(NC2=NCCO2)c2c1CCCC2 | > 100
O=c1cc(-c2ccccc2)c2ccc(O)c(CN(CCCl)CCCl)c2o1 | 35.8
CC1=C(O)C(=O)C(C2=C(O)C(=O)C(C)=C(O)C2=O)=C(O)C1=O | > 100

system: LOX IMVI melanoma; assay: DTP human tumour cell line panel, 48 h

Compound | TGI [µM]
CCOC(=O)C1C(O)CC2c3ccccc3-c3ccccc3C21 (stereo unspecified) | > 100
CC/C=C/C[C@H](O[Si](C)(C)C(C)(C)C)[C@H]1C[C@H]2O[C@H]([C@@H](O)C#C[Si](C)(C)C)C[C@H]2O1 | 22.1
COc1ccc(NC2=NCCO2)c2c1CCCC2 | > 100
O=c1cc(-c2ccccc2)c2ccc(O)c(CN(CCCl)CCCl)c2o1 | 22.1
CC1=C(O)C(=O)C(C2=C(O)C(=O)C(C)=C(O)C2=O)=C(O)C1=O | > 100

system: M14 melanoma; assay: DTP human tumour cell line panel, 48 h

Compound | TGI [µM]
CCOC(=O)C1C(O)CC2c3ccccc3-c3ccccc3C21 (stereo unspecified) | > 100
CC/C=C/C[C@H](O[Si](C)(C)C(C)(C)C)[C@H]1C[C@H]2O[C@H]([C@@H](O)C#C[Si](C)(C)C)C[C@H]2O1 | 24.7
COc1ccc(NC2=NCCO2)c2c1CCCC2 | > 100
O=c1cc(-c2ccccc2)c2ccc(O)c(CN(CCCl)CCCl)c2o1 | 42
CC1=C(O)C(=O)C(C2=C(O)C(=O)C(C)=C(O)C2=O)=C(O)C1=O | > 100

system: MALME-3M melanoma; assay: DTP human tumour cell line panel, 48 h

Compound | TGI [µM]
CCOC(=O)C1C(O)CC2c3ccccc3-c3ccccc3C21 (stereo unspecified) | > 100
CC/C=C/C[C@H](O[Si](C)(C)C(C)(C)C)[C@H]1C[C@H]2O[C@H]([C@@H](O)C#C[Si](C)(C)C)C[C@H]2O1 | 24.8
COc1ccc(NC2=NCCO2)c2c1CCCC2 | > 100
O=c1cc(-c2ccccc2)c2ccc(O)c(CN(CCCl)CCCl)c2o1 | 41.3
CC1=C(O)C(=O)C(C2=C(O)C(=O)C(C)=C(O)C2=O)=C(O)C1=O | 46.6

system: MCF7 breast; assay: DTP human tumour cell line panel, 48 h

Compound | TGI [µM]
CCOC(=O)C1C(O)CC2c3ccccc3-c3ccccc3C21 (stereo unspecified) | > 100
CC/C=C/C[C@H](O[Si](C)(C)C(C)(C)C)[C@H]1C[C@H]2O[C@H]([C@@H](O)C#C[Si](C)(C)C)C[C@H]2O1 | 20.9
COc1ccc(NC2=NCCO2)c2c1CCCC2 | > 100
O=c1cc(-c2ccccc2)c2ccc(O)c(CN(CCCl)CCCl)c2o1 | > 100
CC1=C(O)C(=O)C(C2=C(O)C(=O)C(C)=C(O)C2=O)=C(O)C1=O | > 100

system: MDA-MB-231 breast; assay: DTP human tumour cell line panel, 48 h

Compound | TGI [µM]
CCOC(=O)C1C(O)CC2c3ccccc3-c3ccccc3C21 (stereo unspecified) | > 100
CC/C=C/C[C@H](O[Si](C)(C)C(C)(C)C)[C@H]1C[C@H]2O[C@H]([C@@H](O)C#C[Si](C)(C)C)C[C@H]2O1 | 30.2
COc1ccc(NC2=NCCO2)c2c1CCCC2 | > 100
O=c1cc(-c2ccccc2)c2ccc(O)c(CN(CCCl)CCCl)c2o1 | 33.2
CC1=C(O)C(=O)C(C2=C(O)C(=O)C(C)=C(O)C2=O)=C(O)C1=O | > 100

system: MDA-MB-435; assay: DTP human tumour cell line panel, 48 h

Compound | TGI [µM]
CCOC(=O)C1C(O)CC2c3ccccc3-c3ccccc3C21 (stereo unspecified) | > 100
CC/C=C/C[C@H](O[Si](C)(C)C(C)(C)C)[C@H]1C[C@H]2O[C@H]([C@@H](O)C#C[Si](C)(C)C)C[C@H]2O1 | 25.3
COc1ccc(NC2=NCCO2)c2c1CCCC2 | > 100
O=c1cc(-c2ccccc2)c2ccc(O)c(CN(CCCl)CCCl)c2o1 | 39.9
CC1=C(O)C(=O)C(C2=C(O)C(=O)C(C)=C(O)C2=O)=C(O)C1=O | > 100

system: MDA-N; assay: DTP human tumour cell line panel, 48 h

Compound | TGI [µM]
CCOC(=O)C1C(O)CC2c3ccccc3-c3ccccc3C21 (stereo unspecified) | > 100
CC/C=C/C[C@H](O[Si](C)(C)C(C)(C)C)[C@H]1C[C@H]2O[C@H]([C@@H](O)C#C[Si](C)(C)C)C[C@H]2O1 | 24.8
COc1ccc(NC2=NCCO2)c2c1CCCC2 | > 100
O=c1cc(-c2ccccc2)c2ccc(O)c(CN(CCCl)CCCl)c2o1 | 35.1
CC1=C(O)C(=O)C(C2=C(O)C(=O)C(C)=C(O)C2=O)=C(O)C1=O | > 100

system: MOLT-4 leukemia; assay: DTP human tumour cell line panel, 48 h

Compound | TGI [µM]
CCOC(=O)C1C(O)CC2c3ccccc3-c3ccccc3C21 (stereo unspecified) | > 100
CC/C=C/C[C@H](O[Si](C)(C)C(C)(C)C)[C@H]1C[C@H]2O[C@H]([C@@H](O)C#C[Si](C)(C)C)C[C@H]2O1 | > 48.6
COc1ccc(NC2=NCCO2)c2c1CCCC2 | 42.4
O=c1cc(-c2ccccc2)c2ccc(O)c(CN(CCCl)CCCl)c2o1 | 47.8
CC1=C(O)C(=O)C(C2=C(O)C(=O)C(C)=C(O)C2=O)=C(O)C1=O | > 100
